Experimental data reported in patent publication US8148391B2 (Cephalon, Inc., priority 2006, dated 2012).
Where two headings read alike, the source gives them in different places.

How the values were obtained:
[1] = biological target: T1, baculovirus-expressed ALK (Homo sapiens, UniProt Q9UM73); assay: ALK Kinase Assay (ELISA-type, time-resolved fluorescence); type: biochemical
T1 construct: host or cells: baculovirus expression system
In short: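 Plates coated with phospholipase C-γ substrate (10 μg/mL in TBS); reaction started with 30 ng/ml ALK and run 15 min at 37° C. Phosphorylated substrate detected with Eu-N1-labeled PT66 antibody. IC50 from sigmoidal variable-slope fit of percent inhibition vs log concentration.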

[2] = biological target: T2, c-Met (cytoplasmic domain) (Homo sapiens, UniProt P08581); assay: c-Met Kinase Assay (same methods as for ALK, with modifications); type: biochemical
T2 construct: 10 ng/mL c-Met (cytoplasmic domain, Invitrogen Corporation #PV3143); purchased Invitrogen Corporation PV3143
In short: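 Plates were coated with phospholipase C-γ substrate (10 μg/mL) in TBS, and the reaction was started with 10 ng/mL c-Met cytoplasmic domain and run 15 min at 37 °C. Phosphoproduct was detected with Eu-N1-labelled PT66 antibody. IC50 came from a variable-slope sigmoidal fit of percent inhibition vs log concentration.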

[3] = 1 μM ATP (Km level), 30 ng/ml ALK, 37° C., 15 minutes, read-out: ALK Activity (ALK kinase inhibition, IC50 class)
[4] = 1 μM ATP (Km level), 10 ng/mL c-Met, read-out: cMet Activity (c-Met kinase inhibition, IC50 class)
[5] = ALK kinase inhibition, 1 μM ATP, read-out: ALK Activity
[6] = c-Met kinase inhibition, 1 μM ATP, read-out: cMet Activity
[7] = ALK kinase inhibition, 1 μM ATP (Km level), read-out: ALK Activity
[8] = c-Met kinase inhibition, 1 μM ATP (Km level), read-out: cMet Activity
[9] = 1 μM ATP (Km level), read-out: ALK Activity (ALK Kinase Inhibition, IC50)
[10] = 1 μM ATP (Km level), read-out: cMet Activity (c-Met Kinase Inhibition, IC50)

T2 sequence (P08581 956-1390 limits assumed): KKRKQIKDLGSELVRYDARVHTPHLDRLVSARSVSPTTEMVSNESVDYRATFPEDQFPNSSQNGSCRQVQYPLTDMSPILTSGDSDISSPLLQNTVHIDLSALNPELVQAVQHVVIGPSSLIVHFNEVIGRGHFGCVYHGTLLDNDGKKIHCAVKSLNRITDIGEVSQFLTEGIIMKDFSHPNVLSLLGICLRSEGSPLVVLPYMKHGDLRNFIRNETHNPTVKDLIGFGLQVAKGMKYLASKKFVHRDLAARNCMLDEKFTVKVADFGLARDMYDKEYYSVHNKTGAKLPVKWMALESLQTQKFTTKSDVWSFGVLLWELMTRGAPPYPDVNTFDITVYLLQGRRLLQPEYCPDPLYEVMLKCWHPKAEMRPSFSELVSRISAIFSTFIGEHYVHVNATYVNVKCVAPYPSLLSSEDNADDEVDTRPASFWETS
T1 sequence (Q9UM73 19-1620): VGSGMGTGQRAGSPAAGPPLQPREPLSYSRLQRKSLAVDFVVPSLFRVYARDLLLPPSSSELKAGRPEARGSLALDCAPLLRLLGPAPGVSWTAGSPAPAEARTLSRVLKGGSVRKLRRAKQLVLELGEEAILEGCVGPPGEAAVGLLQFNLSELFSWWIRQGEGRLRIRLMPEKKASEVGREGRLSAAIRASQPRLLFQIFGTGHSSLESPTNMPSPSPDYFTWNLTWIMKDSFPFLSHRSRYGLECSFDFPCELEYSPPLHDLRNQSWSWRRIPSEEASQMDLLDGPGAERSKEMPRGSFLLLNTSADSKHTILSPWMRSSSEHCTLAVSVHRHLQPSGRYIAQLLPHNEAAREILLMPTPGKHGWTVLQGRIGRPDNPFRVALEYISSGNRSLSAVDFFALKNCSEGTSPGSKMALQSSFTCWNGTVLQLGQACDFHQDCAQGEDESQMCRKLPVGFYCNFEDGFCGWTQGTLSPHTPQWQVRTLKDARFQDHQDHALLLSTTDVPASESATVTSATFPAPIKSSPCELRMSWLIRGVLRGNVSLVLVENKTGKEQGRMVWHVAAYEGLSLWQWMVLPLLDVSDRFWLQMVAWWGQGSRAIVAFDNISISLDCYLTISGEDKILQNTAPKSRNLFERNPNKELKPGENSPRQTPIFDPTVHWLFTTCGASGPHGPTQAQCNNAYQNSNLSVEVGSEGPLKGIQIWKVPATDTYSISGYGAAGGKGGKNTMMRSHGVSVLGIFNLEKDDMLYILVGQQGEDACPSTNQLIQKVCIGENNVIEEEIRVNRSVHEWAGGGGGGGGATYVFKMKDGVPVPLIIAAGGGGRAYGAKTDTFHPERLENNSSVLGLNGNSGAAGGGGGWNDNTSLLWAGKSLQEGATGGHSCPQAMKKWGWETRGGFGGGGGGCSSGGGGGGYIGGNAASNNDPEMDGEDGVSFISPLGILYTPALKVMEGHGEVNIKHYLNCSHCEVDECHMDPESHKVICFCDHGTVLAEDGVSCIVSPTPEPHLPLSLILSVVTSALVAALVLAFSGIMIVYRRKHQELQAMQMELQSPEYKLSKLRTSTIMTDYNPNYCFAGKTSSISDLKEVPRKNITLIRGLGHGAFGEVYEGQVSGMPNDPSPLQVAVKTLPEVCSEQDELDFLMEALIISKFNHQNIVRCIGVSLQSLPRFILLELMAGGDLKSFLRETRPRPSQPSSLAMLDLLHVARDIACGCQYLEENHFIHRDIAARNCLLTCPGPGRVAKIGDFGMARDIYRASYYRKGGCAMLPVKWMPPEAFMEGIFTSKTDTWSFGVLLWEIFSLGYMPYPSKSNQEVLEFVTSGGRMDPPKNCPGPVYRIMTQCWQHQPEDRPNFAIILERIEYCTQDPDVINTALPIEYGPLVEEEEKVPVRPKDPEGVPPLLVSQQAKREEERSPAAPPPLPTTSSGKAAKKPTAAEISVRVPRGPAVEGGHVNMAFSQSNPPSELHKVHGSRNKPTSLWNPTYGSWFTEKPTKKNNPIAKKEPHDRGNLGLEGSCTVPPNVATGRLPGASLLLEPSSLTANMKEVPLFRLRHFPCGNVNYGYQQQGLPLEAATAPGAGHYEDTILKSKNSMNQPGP

SMILES	IC50 [1, 3] [nM]	IC50 [2, 4] [nM]	IC50 [1, 5] [nM]	IC50 [2, 6] [nM]	other results
COCCN1CCc2ccc(Nc3ncc(Cl)c(N[C@H]4CC[C@H](NS(C)(=O)=O)CC4)n3)cc2CC1 [Example 1378, trans-N-(4-{5-Chloro-2-[3-(2-methoxy-ethyl)-2,3,4,5-tetrahydro-1H-benzo[d]azepin-7-ylamino]-pyrimidin-4-ylamino}-cyclohexyl)-methanesulfonamide]	100 to 1000	> 10000	–	–	–
COc1cccc(C(=O)NCCC#N)c1Nc1nc(Nc2ccc3c(c2)CCCC(=O)N3C)ncc1Cl [Example 1062, 2-[5-Chloro-2-(1-methyl-2-oxo-2,3,4,5-tetrahydro-1H-benzo[b]azepin-7-ylamino)-pyrimidin-4-ylamino]-N-(2-cyano-ethyl)-3-methoxy-benzamide]	> 10000	1000 to 10000	–	–	–
CNC(=O)c1ccccc1N(C)c1nc(Nc2ccc3c(c2)CCOC(=O)N3C)ncc1F [Example 1765, 2-{[5-Fluoro-2-(5-methyl-6-oxo-5,6,8,9-tetrahydro-7-oxa-5-aza-benzocyclohepten-2-ylamino)-pyrimidin-4-yl]-methyl-amino}-N-methyl-benzamide]	–	–	> 10000	1000 to 10000	–
C#CCNC(=O)c1cccc(F)c1Nc1nc(Nc2ccc3c(c2)N(C(C)=O)CCCC3(C)C)ncc1Cl [Example 1602, 2-[2-(1-Acetyl-5,5-dimethyl-2,3,4,5-tetrahydro-1H-benzo[b]azepin-8-ylamino)-5-chloro-pyrimidin-4-ylamino]-3-fluoro-N-prop-2-ynyl-benzamide]	–	–	100 to 1000	< 100	–
CCN1CCc2ccc(Nc3ncc(Cl)c(NCCCC(=O)NC)n3)cc2CC1 [Example 212, 4-[5-Chloro-2-(3-ethyl-2,3,4,5-tetrahydro-1H-benzo[d]azepin-7-ylamino)-pyrimidin-4-ylamino]-N-methyl-butyramide]	–	–	–	–	IC50 [1, 7]: 1000 to 10000 nM; IC50 [2, 8]: 1000 to 10000 nM
CCN(CCO)Cc1cc(Nc2nc(Nc3ccc4c(c3OC)CCC(N3CCOCC3)CC4)ncc2Cl)ccc1F (centres unmarked) [Example 740, 2-([5-[5-Chloro-2-(1-methoxy-7-morpholin-4-yl-6,7,8,9-tetrahydro-5H-benzocyclohepten-2-ylamino)-pyrimidin-4-ylamino]-2-fluoro-benzyl}-ethylamino)-ethanol]	–	–	–	–	IC50 [1, 9]: < 100 nM; IC50 [2, 10]: > 10000 nM
CNC(=O)c1ccccc1Nc1nc(Nc2cc3c(cc2OC)N(C)C(=O)OCC3)ncc1Cl [Example 1505, 2-[5-Chloro-2-(3-methoxy-5-methyl-6-oxo-5,6,8,9-tetrahydro-7-oxa-5-aza-benzocyclohepten-2-ylamino)-pyrimidin-4-ylamino]-N-methyl-benzamide]	–	–	< 100	1000 to 10000	–
C#CCNC(=O)c1cccc(F)c1Nc1nc(Nc2ccc3c(c2)N(C(=O)CN2C(=O)c4ccccc4C2=O)CCCC3(C)C)ncc1Cl [Example 1618, 2-(5-Chloro-2-{1-[2-(1,3-dioxo-1,3-dihydro-isoindol-2-yl)-acetyl]-5,5-dimethyl-2,3,4,5-tetrahydro-1H-benzo[b]azepin-8-ylamino}-pyrimidin-4-ylamino)-3-fluoro-N-prop-2-ynyl-benzamide]	–	–	> 10000	< 100	–
COCCN1CCc2ccc(Nc3ncc(Cl)c(Nc4ccccc4C(=O)NCCN(C)C)n3)cc2CC1 [Example 1397, {5-Chloro-2-[3-(2-methoxy-ethyl)-2,3,4,5-tetrahydro-1H-benzo[d]azepin-7-ylamino]-pyrimidin-4-ylamino}-N-(2-dimethylamino-ethyl)-benzamide]	100 to 1000	100 to 1000	–	–	–
CNC(=O)c1cc(F)ccc1Nc1nc(Nc2ccc3c(c2)-c2nccn2CCC3)ncc1Cl [Example 1847, 2-[5-Chloro-2-(5,6-dihydro-4H-1,3a-diaza-benzo[e]azulen-9-ylamino)-pyrimidin-4-ylamino]-5-fluoro-N-methyl-benzamide]	–	–	1000 to 10000	100 to 1000	–
CNC(=O)c1ccsc1Nc1nc(Nc2ccc3c(c2)CCN(CCOC)CC3)ncc1Cl [Example 1484, 2-{5-Chloro-2-[3-(2-methoxy-ethyl)-2,3,4,5-tetrahydro-1H-benzo[d]azepin-7-ylamino]-pyrimidin-4-ylamino}-thiophene-3-carboxylic acid methylamide]	–	–	100 to 1000	100 to 1000	–
CNC(=O)c1ccc(Cl)c(Cl)c1Nc1nc(Nc2ccc3c(c2)CCOC(=O)N3C)ncc1Cl [Example 1757, 3,4-Dichloro-2-[5-chloro-2-(5-methyl-6-oxo-5,6,8,9-tetrahydro-7-oxa-5-aza-benzocyclohepten-2-ylamino)-pyrimidin-4-ylamino]-N-methyl-benzamide]	–	–	100 to 1000	< 100	–
COCCN1CCc2ccc(Nc3ncc(Cl)c(N[C@@H]4CCC[C@H](N(CC#N)S(C)(=O)=O)C4)n3)cc2CC1 (relative stereo) [Example 1386, rel-N-((1S,3R)-3-{5-Chloro-2-[3-(2-methoxy-ethyl)-2,3,4,5-tetrahydro-1H-benzo[d]azepin-7-ylamino]-pyrimidin-4-ylamino}-cyclohexyl)-N-cyanomethyl-methanesulfonamide]	100 to 1000	1000 to 10000	–	–	–
CCNC(=O)c1ccccc1Nc1nc(Nc2cc3c(cc2OC)CC(=O)NCC3)ncc1Cl [Example 265, 2-[5-Chloro-2-(8-methoxy-2-oxo-2,3,4,5-tetrahydro-1H-benzo[d]azepin-7-ylamino)-pyrimidin-4-ylamino]-N-ethyl-benzamide]	–	–	–	–	IC50 [1, 7]: < 100 nM; IC50 [2, 8]: 100 to 1000 nM
CNC(=O)c1ccccc1Nc1nc(Nc2ccc3c(c2)OCCNC3=O)ncc1Cl [Example 512, 2-[5-Chloro-2-(5-oxo-2,3,4,5-tetrahydro-benzo[f][1,4]oxazepin-8-ylamino)-pyrimidin-4-ylamino]-N-methyl-benzamide]	–	–	–	–	IC50 [1, 9]: < 100 nM; IC50 [2, 10]: < 100 nM
COc1cccnc1-c1ccccc1Nc1nc(Nc2ccc3c(c2)CCC(O)CC3)ncc1Cl (centres unmarked) [Example 1019, 2-{5-Chloro-4-[2-(3-methoxy-pyridin-2-yl)-phenylamino]-pyrimidin-2-ylamino}-6,7,8,9-tetrahydro-5H-benzocyclohepten-7-ol]	100 to 1000	100 to 1000	–	–	–
CNC(=O)c1cccc(F)c1Nc1nc(Nc2ccc3c(c2)C(=O)NCCC3)ncc1Cl [Example 400, 2-[5-Chloro-2-(1-oxo-2,3,4,5-tetrahydro-1H-benzo[c]azepin-8-ylamino)-pyrimidin-4-ylamino]-3-fluoro-N-methyl-benzamide]	–	–	–	–	IC50 [1, 7]: 100 to 1000 nM; IC50 [2, 8]: 100 to 1000 nM
CC(C)S(=O)(=O)c1ccccc1Nc1nc(Nc2ccc3c(c2)CCC(N2CCOCC2)CC3)ncc1Cl (centres unmarked) [Example 1036, 5-Chloro-N*2*-(7-morpholin-4-yl-6,7,8,9-tetrahydro-5H-benzocyclohepten-2-yl)-N*4*-[2-(propane-2-sulfonyl)-phenyl]-pyrimidine-2,4-diamine]	< 100	100 to 1000	–	–	–
CCN1CCN(CC(=O)N(C)C)Cc2cc(OC)c(Nc3ncc(Cl)c(N[C@@H]4CCCC[C@H]4NS(C)(=O)=O)n3)cc21 [Example 1461, 2-{8-[5-Chloro-4-((1R,2R)-2-methanesulfonylamino-cyclohexylamino)-pyrimidin-2-ylamino]-1-ethyl-7-methoxy-1,2,3,5-tetrahydro-benzo[e][1,4]diazepin-4-yl}-N,N-dimethyl-acetamide]	–	–	< 100	> 10000	–
CNC(=O)c1cccc(F)c1Nc1nc(Nc2ccc3c(c2)NC(=O)CN(CCOC)C3)ncc1Cl [Example 1862, 2-{5-Chloro-2-[4-(2-methoxy-ethyl)-2-oxo-2,3,4,5-tetrahydro-1H-benzo[e][1,4]diazepin-8-ylamino]-pyrimidin-4-ylamino}-3-fluoro-N-methyl-benzamide]	–	–	100 to 1000	< 100	–
CCN1CCN(CC(=O)OCCOC)C(=O)c2ccc(Nc3ncc(Cl)c(N[C@H]4[C@@H]5CC[C@@H](C5)[C@H]4C(N)=O)n3)cc21 [Example 1457, {8-[4-((1R,2S,3R,4S)-3-Carbamoyl-bicyclo[2.2.1]hept-2-ylamino)-5-chloro-pyrimidin-2-ylamino]-1-ethyl-5-oxo-1,2,3,5-tetrahydro-benzo[e][1,4]diazepin-4-yl}-acetic acid 2-methoxy-ethyl ester]	–	–	< 100	1000 to 10000	–
C#CCNC(=O)c1cccc(F)c1Nc1nc(Nc2ccc3c(c2)OCCCN3CC)ncc1Cl [Example 1407, 2-[5-Chloro-2-(9-ethyl-6,7,8,9-tetrahydro-5-oxa-9-aza-benzocyclohepten-3-ylamino)-pyrimidin-4-ylamino]-3-fluoro-N-prop-2-ynyl-benzamide]	100 to 1000	< 100	–	–	–
